Laboratory results reported in US20240325330A1, “NEW METHOD TO TREAT ACIDOSIS RELATED DISEASES WITH ACETOACETATE” (INSTITUT NATIONAL DE LA SANTÉ ET DE LA RECHERCHE MÉDICALE, priority 2021, published 2024).

Key:
[1] = tested on: human monocytes differentiated into macrophages under lactic acidosis (LA-Mφ); experiment: Metabolite quantification in culture supernatants and acetyl-CoA in lysates; type: cell-based
Protocol: (§1) Peripheral blood mononuclear cells (PBMC) were obtained from healthy human volunteers (Blood collection center, Angers, France; agreement ANG-2017-01) by standard density-gradient centrifugation on lymphocyte separation medium (Eurobio, Courtaboeuf, France). CD14+ monocytes were then isolated by positive magnetic cell-sorting (Miltenyi Biotec, Bergisch Gladbach, Germany). Monocytes (1×10^6 cells/mL) were cultured in complete medium (CM) consisting of RPMI 1640 (Lonza, Verviers, Belgium) supplemented with 10% fetal calf serum (FCS) (Eurobio), 2 mM L-glutamine, 1 mM sodium pyruvate, 0.1 mM non-essential amino acids, 10 mM HEPES, 100 U/mL penicillin and 100 μg/mL streptomycin (all from Lonza) in the presence of 50 ng/mL GM-CSF (R&D Systems, Minneapolis, MN).
Experiments were performed in the presence of 10 mM lactic acid (Sigma-Aldrich, St Louis, MO) resulting in a pHe of 6.5 to generate LA-Mφ (lactic acidosis conditioning), 12.35 mM HCl to reach a final pHe of 6.5 and to generate HCl-Mφ(acidosis conditioning), 10 mM sodium lactate (Sigma-Aldrich) to generate lactate-Mφ (lactosis conditioning, pH 7.3), in the absence or presence of 5 mM lithium acetoacetate (AcAc) (Sigma-Aldrich, St Louis, MO).
The levels of glucose, glutamine, free L-amino acids and lactate in cell culture supernatants, and of acetyl-CoA in whole-cell lysates were determined, together with the intracellular ADP/ATP ratio, with enzymatic assays (Abcam), according to the manufacturer's instructions. […] Acetoacetate concentrations were quantified with β-hydroxybutyrate dehydrogenase (3-HBDH) (Roche Applied Science), an enzyme that catalyzes the reversible reduction of acetoacetate to β-hydroxybutyrate in the presence of excess NADH, with the concomitant oxidation of NADH. The progress of the reaction was monitored by measuring the decrease in 340 nm absorbance due to the conversion of NADH into NAD. AcAc consumption was determined by subtracting the concentration of AcAc in cell culture supernatants from that in cell-free culture supernatants.

[2] = tested on: human monocytes exposed to lactic acid; experiment: Intracellular pH (SNARF probe, flow cytometry); type: cell-based; settings: 10 mM lactic acid with 5 mM AcAc; FIG. 2E
Protocol: Peripheral blood mononuclear cells (PBMC) were obtained from healthy human volunteers (Blood collection center, Angers, France; agreement ANG-2017-01) by standard density-gradient centrifugation on lymphocyte separation medium (Eurobio, Courtaboeuf, France). CD14+ monocytes were then isolated by positive magnetic cell-sorting (Miltenyi Biotec, Bergisch Gladbach, Germany). […]
Intracellular pH (pHi) was measured by incubating 3×10^5 Mφ with 500 nM pH-sensitive dye carboxy-SNARF-AM (Life Technologies, Carlsbad, CA) in PBS/BSA at 37° C. for 20 min and then performing flow cytometry analysis. We determined pHi as the ratio of fluorescence intensities at two emission wavelengths (585/42 nm and 700/60 nm PMTs). SNARF fluorescence in macrophages was calibrated with a high-potassium buffer (39.6 mM NaCl, 120 mM KCl, 2.3 mM CaCl2), 1 mM MgCl2, 5 mM HEPES, 10 mM glucose) at pH values of 6.5 to 8, in the presence of 10 μM nigericin (Sigma-Aldrich); nigericin exchanges external potassium with internal protons to equilibrate extracellular and intracellular pH.

[3] = tested on: human monocytes differentiated into macrophages under lactic acidosis (LA-Mφ); experiment: Mitochondrial network architecture, morphology and size (confocal microscopy, TEM); type: cell-based; settings: 5 mM AcAc, 10 mM lactic acid; compared with Mφ; data not shown
Protocol: as §1, with “MN). […]” for “MN).”
Cells were first incubated with 150 nM MitoTracker Green (Thermo Fisher Scientific) in CM medium at 37° C. for 10 min. […] Image blobs were then analyzed with the regionprops function of Matlab.
We fixed 5×10^6 macrophages by incubation for 16 h at 4° C. with 2.5% electron-grade glutaraldehyde (LFD Distribution, Sainte Consorce, France) in 0.1 M phosphate buffer pH 7.4. […] Stitched images were reviewed and scored by a trained electron histopathologist for the presence of autophagy and mitophagy vacuoles. Mitochondrial size was determined by measuring the maximum Feret diameter on TEM images.

[4] = tested on: PBMC from septic shock patients; experiment: Mitochondrial depolarization in cultured PBMC from sepsis patients; type: cell-based, human; settings: 24 h, medium with 5 mM AcAc, FIG. 4B
Protocol: Mitochondrial membrane potential was assessed by incubating with 10 nM MitoTracker Green and 5 nM MitoTracker DeepRed (Thermo Fisher Scientific, Waltham, MA) in PBS containing 1% (w/v) BSA in PBS (PBS/BSA) at 37° C. for 15 min. Cells were washed and incubated with 0.5 μg/mL DAPI to exclude dead cells. Flow cytometry data were acquired with a FACSCanto II flow cytometer (BD Biosciences, San Jose, CA) and analyzed with FlowJo software (Tree Star, Ashland, OR).
Peripheral blood mononuclear cells (PBMC) from septic patients and healthy subjects were purified by standard density-gradient centrifugation on lymphocyte separation medium (Eurobio, Courtaboeuf, France). PBMC were cultured for 24 h in a medium consisting of RPMI 1640 medium with L-glutamine and without glucose (Lonza, Verviers, Belgium) and supplemented with 6% FCS (Eurobio), 3% autologous plasma, 0.5 g/L glucose, 100 U/mL penicillin and 100 μg/mL streptomycin (all from Lonza) in the presence of 2 ng/mL GM-CSF (R&D Systems). In some experiments, the culture medium was supplemented with 5 mM AcAc or adjusted to 4 g/L glucose. After 24 h culture, the percentage of cells with depolarized mitochondria was assessed as described above. After 3 days of culture, intracellular ATP has been quantified as described above.

CC(=O)CC(=O)[O-].[Li+] [AcAc, lithium acetoacetate]
uptake of glucose and amino acids and production of lactate ([1]; LA-Mφ in the presence of 5 mM AcAc, FIG. 2A-D): retain a partial capacity to take up glucose and amino acids and to produce lactate | AcAc consumption by cells ([1]; LA-Mφ+AcAc culture supernatants, days 1 and 3, FIG. 2F): consume AcAc | intracellular AcCoA levels ([1]; reduction induced by LA, in the presence of 5 mM AcAc): prevented the reduction of intracellular AcCoA levels | immediate short-term decrease in pHi induced by extracellular acidosis [2]: remained detectable | mitochondrial network architecture (morphology and size) [3]: protected the mitochondrial network architecture | percentage of cells with depolarized mitochondria [4]: significantly reduced
